Earlier results in patent US20080008798A1, “Salts of astaxathin esters” (priority 2002, published 2008).

Columns and labels:
[1] = system: flesh pigmentation; details: feeding non-formulated astaxanthin
[2] = per week; storage of the manufactured feed under ambient conditions

Q: Which pigmentation effect [1] does the source give for `CC1=C(/C=C/C(C)=C/C=C/C(C)=C/C=C/C=C(C)/C=C/C=C(C)/C=C/C2=C(C)C(=O)[C@@H](O)CC2(C)C)C(C)(C)C[C@H](O)C1=O` [astaxanthin] here?
A: almost no pigmentation effect

Q: What about the “contained pigment lost through degradation during storage” value [2] of the same compound?
A: about 2%
